Source: US9056110B2, “Substituted pyrimidinone-phenyl-pyrimidinyl compounds” (Confluence Life Sciences, Inc., priority 2011, dated 2015)

Legend:
TNFα = test: LPS stimulated TNFα production in human PBMCs (ELISA); assay type: cell-based; settings: PBMC, LPS 0.1 μg/ml, 18-24 hours, read-out: PBMC Cell, TNFα IC50
Experimental: Evaluation of the potency and efficacy of p38 inhibitors to block cytokine production is carried out using the human U937 cell line and purified human PBMCs (peripheral blood mononuclear cells). The U937 human pre-monocytic cell line is obtained from the American Type Culture Collection (Rockville, Md.). These cells are differentiated to a monocytic/macrophage phenotype as described by Burnette (Burnette et al., (2009). SD0006: a potent, selective and orally available inhibitor of p38 kinase, Pharmacology 84(1):42-60). Differentiated U937 cells are seeded into 96-well tissue culture plates (200,000 cells/well) in complete media. After 24 hours, the cells are pretreated for 60 minutes in the presence or absence of compound and then stimulated with LPS (lipopolysaccharide) (0.1 μg/mL) for 4 hours. Culture media are then collected for determination of TNFα or IL-6 levels by ELISA. Human PBMCs are isolated from leukopacks as described by Burnette (Burnette et al., (2009), op. cit.). The cells are seeded into 96-well tissue culture plates (200,000 cells/well) in complete media. After a one hour recovery period at 37° C., 5% CO2, the cells are pretreated for 60 minutes in the presence or absence of compound and then stimulated with LPS (0.1 μg/ml) for 18-24 hours. Culture media are then collected for determination of TNFα and IL1β by ELISA. Cytokine concentrations are extrapolated from recombinant protein standard curves using a four-parameter logistic model and solving for IC50 after iterating to the best least-squares fit. p38 inhibitors will show a dose dependent inhibition of LPS stimulated TNFα, and IL6 in differentiated U937 cells and a dose dependent inhibition of LPS stimulated TNFα, IL6 and IL1b in human PBMCs. As drugs that down-regulate TNFα, IL6 and IL1b are efficacious in a number of autoimmune, autoinflammatory inflammatory, cardiovascular and oncological diseases, it would be expected that p38 drugs that inhibit these cytokines and other enzymes and mediators of disease will be effective drugs. Species compounds of Formula (I), described hereinabove, evaluated in this assay, are expected to provide a therapeutic benefit in the treatment of p38 kinase mediated diseases, including lymphoma and inflammation.

p38α/MK2 = p38α/MK2 (Homo sapiens, UniProt Q16539); test: p38α/MK2 cascade assay (IMAP, Hsp27 peptide phosphorylation); assay type: biochemical; settings: for IC50: p38α/MK2 cascade, Hsp27 peptide 1 μM, MgATP 10 μM, 120 minutes, read-out: p38/MK2 IC50; for Selectivity Ratio: ratio of p38α/PRAK:p38α/MK2 IC50 values
Chain of p38α/MK2 (Q16539 whole entry): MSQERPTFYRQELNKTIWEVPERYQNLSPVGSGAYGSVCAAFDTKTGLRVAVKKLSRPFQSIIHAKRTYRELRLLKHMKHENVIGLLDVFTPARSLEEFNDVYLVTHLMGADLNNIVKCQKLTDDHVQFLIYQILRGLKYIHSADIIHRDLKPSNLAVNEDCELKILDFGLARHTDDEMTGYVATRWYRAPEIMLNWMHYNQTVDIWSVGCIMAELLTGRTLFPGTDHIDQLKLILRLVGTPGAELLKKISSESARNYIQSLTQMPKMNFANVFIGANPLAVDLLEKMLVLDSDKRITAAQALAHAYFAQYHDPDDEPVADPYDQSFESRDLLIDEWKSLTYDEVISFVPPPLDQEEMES
Chain of p38α/MK2 (P49137 whole entry partner): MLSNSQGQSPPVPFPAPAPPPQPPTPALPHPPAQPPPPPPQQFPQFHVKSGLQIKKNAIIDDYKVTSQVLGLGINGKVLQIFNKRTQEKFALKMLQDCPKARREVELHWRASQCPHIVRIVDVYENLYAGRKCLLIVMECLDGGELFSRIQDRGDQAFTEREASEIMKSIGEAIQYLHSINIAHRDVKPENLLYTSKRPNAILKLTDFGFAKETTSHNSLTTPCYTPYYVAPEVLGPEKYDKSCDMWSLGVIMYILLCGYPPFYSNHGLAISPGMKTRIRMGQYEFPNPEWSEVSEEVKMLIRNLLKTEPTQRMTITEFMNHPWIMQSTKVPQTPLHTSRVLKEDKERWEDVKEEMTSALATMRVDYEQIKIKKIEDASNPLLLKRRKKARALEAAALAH
Experimental: (§1) P38 inhibitory potency and P38/MK2 substrate selectivity: The novel, MK2 substrate-selective inhibitory mechanism of compounds is evaluated in enzyme assays that compare inhibitor potency in blocking p38/MK2 versus p38/PRAK induced phosphorylation of an HSP-27 derived peptide substrate. The ability of compounds to inhibit activated phospho-p38α is evaluated using a p38α/MK2 and a p38α/PRAK cascade assay format. The kinase activity of p38α is determined by its ability to phosphorylate and activate GST-MK2 or GST-PRAK. The kinase activity of activated MK2 and PRAK is followed by measuring the phosphorylation of a fluorescently-labeled, peptide substrate based on the sequence of Hsp27 (FITC-KKKALSRQLSVAA). The phosphorylation of the Hsp27 peptide is quantified using IMAP assay technology (Molecular Devices) and the Analyst HT plate reader (LJL Biosystems). Kinase reactions are carried out in a 384-well plate (Corning 3575) in 20 mM HEPES pH 7.5, 10 mM MgCl2, 0.0005% Tween-20, 0.01% BSA, 1 mM DTT, and 2% DMSO. The inhibitor concentration varies between 0.5-30,000 nM, while the Hsp27 peptide substrate and MgATP are held constant at 1 μM and 10 μM, respectively. Activated p38α is added to a final concentration of 20 pM for reactions with 1 nM nonphosphorylated 1 nM GST-MK2. For the p38α/PRAK cascade, unactivated GST-PRAK is held constant at 10 nM while p38α is added to a final concentration of […]. Kinase reactions are incubated at room temperature and quenched after 120 minutes by the addition of 1× Progressive Binding Buffer A containing 1×IMAP beads (IMAP FP Progressive Screening Express Kit, Molecular Devices Catalog Number R8127). Inhibitor potency is calculated by fitting dose-response data to the 4-parameter logistical IC50 equation. The substrate selectivity is calculated as a ratio of p38α/PRAK:p38α/MK2 IC50 values. A substrate selective inhibitor will have a p38α/PRAK:p38α/MK2 IC50 ratio of >2 while a classical p38 inhibitor will have a ratio of between 0.5-2. […] By way of example, the enhanced therapeutic benefit could be associated with a reduction in inhibition of p38 mediated anti-inflammatory functions, such as IL-10 production and TAB1 phosphorylation. An increased safety profile is expected based, for example, on a reduced inhibition of p38 substrates, such as PPARg and CDC25 phosphatase and PLA2 involved in gluconeogenesis and cell cycle regulation, respectively.

p38α/PRAK = p38α/PRAK (Homo sapiens, UniProt Q16539); test: p38α/PRAK cascade assay (IMAP, Hsp27 peptide phosphorylation); assay type: biochemical; settings: Hsp27 peptide 1 μM, MgATP 10 μM, 120 minutes, read-out: p38/PRAK IC50
Chain of p38α/PRAK (Q16539 whole entry): as the sequence (Q16539 whole entry) above
Experimental: as §1

Cc1nc(COc2nc(C)n(-c3cc(-c4ccnc(C(C)(C)O)n4)ccc3C)c(=O)c2Cl)co1 (racemic) [Example 8, 5-chloro-3-(5-(2-(2-hydroxypropan-2-yl)pyrimidin-4-yl)-2-methylphenyl)-2-methyl-6-((2-methyloxazol-4-yl)methoxy)pyrimidin-4(3H)-one]
IC50 (TNFα): 158 nM
IC50 (p38α/MK2): 121 nM
Selectivity Ratio (p38α/MK2): 18.1
IC50 (p38α/PRAK): 2190 nM

Cc1cccc(COc2nc(C)n(-c3cc(-c4ccnc(C(C)(C)O)n4)ccc3C)c(=O)c2Cl)n1 (racemic) [Example 14, 5-chloro-3-(5-(2-(2-hydroxypropan-2-yl)pyrimidin-4-yl)-2-methylphenyl)-2-methyl-6-((6-methylpyridin-2-yl)methoxy)pyrimidin-4(3H)-one]
IC50 (TNFα): 250 nM
IC50 (p38α/MK2): 184 nM
Selectivity Ratio (p38α/MK2): 17.9
IC50 (p38α/PRAK): 3300 nM

Cc1ccc(-c2ccnc(C(C)(C)O)n2)cc1-n1c(C)nc(OCc2ncc(F)cc2F)c(Cl)c1=O (racemic) [Example 19, 5-chloro-6-((3,5-difluoropyridin-2-yl)methoxy)-3-(5-(2-(2-hydroxypropan-2-yl)pyrimidin-4-yl)-2-methylphenyl)-2-methylpyrimidin-4(3H)-one]
IC50 (TNFα): 104 nM
IC50 (p38α/MK2): 40 nM
Selectivity Ratio (p38α/MK2): 14.1
IC50 (p38α/PRAK): 566 nM

Cc1nc(COc2nc(C)n(-c3cc(-c4ccnc(C(C)(C)O)n4)ccc3C)c(=O)c2Cl)co1 (single isomer, unassigned) [Example 10, (+)-5-chloro-3-(5-(2-(2-hydroxypropan-2-yl)pyrimidin-4-yl)-2-methylphenyl)-2-methyl-6-((2-methyloxazol-4-yl)methoxy)pyrimidin-4(3H)-one]
IC50 (p38α/MK2): 19200 nM
Selectivity Ratio (p38α/MK2): >1.56

Cc1cccc(COc2nc(C)n(-c3cc(-c4ccnc(C(C)(C)O)n4)ccc3C)c(=O)c2Cl)n1 (single isomer, unassigned) [Example 16, (+)-5-chloro-3-(5-(2-(2-hydroxypropan-2-yl)pyrimidin-4-yl)-2-methylphenyl)-2-methyl-6-((6-methylpyridin-2-yl)methoxy)pyrimidin-4(3H)-one]
IC50 (TNFα): 3560 nM
IC50 (p38α/MK2): 5030 nM
Selectivity Ratio (p38α/MK2): >6.0

Cc1ccc(-c2ccnc(C(C)(C)O)n2)cc1-n1c(C)nc(OCc2ccc(F)cc2F)c(Br)c1=O [Example 1, 5-bromo-6-((2,4-difluorobenzyl)oxy)-3-(5-(2-(2-hydroxypropan-2-yl)pyrimidin-4-yl)-2-methylphenyl)-2-methylpyrimidin-4(3H)-one]
IC50 (TNFα): 12 nM
IC50 (p38α/MK2): 15 nM
Selectivity Ratio (p38α/MK2): 5.1
IC50 (p38α/PRAK): 76 nM

Cc1ccc(-c2ccnc(C(C)(C)O)n2)cc1-n1c(C)nc(OCc2ccc(F)cc2F)c(Cl)c1=O [Example 2, 5-chloro-6-(2,4-difluoro-benzyloxy)-3-{5-[2-(1-hydroxy-1-methyl-ethyl)-pyrimidin-4-yl]-2-methyl-phenyl}-2-methyl-3H-pyrimidin-4-one]
IC50 (TNFα): 9.8 nM
IC50 (p38α/MK2): 15 nM
Selectivity Ratio (p38α/MK2): 5.5
IC50 (p38α/PRAK): 83 nM

Cc1ccc(-c2ccnc(C(C)(C)O)n2)cc1-n1c(C)nc(OCc2ccc(F)cc2)c(Cl)c1=O [Example 3, 5-chloro-6-((4-fluorobenzyl)oxy)-3-(5-(2-(2-hydroxypropan-2-yl)pyrimidin-4-yl)-2-methylphenyl)-2-methylpyrimidin-4(3H)-one]
IC50 (TNFα): 54 nM
IC50 (p38α/MK2): 51 nM
Selectivity Ratio (p38α/MK2): 10.1
IC50 (p38α/PRAK): 514 nM

Cc1ccc(-c2ccnc(C(C)(C)O)n2)cc1-n1c(C)nc(OCc2ncc(F)cc2F)c(Cl)c1=O [Example 20, (+)-5-chloro-6-((3,5-difluoropyridin-2-yl)methoxy)-3-(5-(2-(2-hydroxypropan-2-yl)pyrimidin-4-yl)-2-methylphenyl)-2-methylpyrimidin-4(3H)-one]
IC50 (p38α/MK2): 5380 nM
Selectivity Ratio (p38α/MK2): 2.82
IC50 (p38α/PRAK): 15200 nM
